Each structure is given as a SMILES string. Entries after “also recorded” stand apart in the source; their conditions may differ.

Series [1] addresses T1, ecdysone receptor (EcR)/USP (Drosophila melanogaster, UniProt P34021).
T1 construct: expressed in transfected cells; host or cells: CV-1 cells
T1 sequence (P34021 1-878): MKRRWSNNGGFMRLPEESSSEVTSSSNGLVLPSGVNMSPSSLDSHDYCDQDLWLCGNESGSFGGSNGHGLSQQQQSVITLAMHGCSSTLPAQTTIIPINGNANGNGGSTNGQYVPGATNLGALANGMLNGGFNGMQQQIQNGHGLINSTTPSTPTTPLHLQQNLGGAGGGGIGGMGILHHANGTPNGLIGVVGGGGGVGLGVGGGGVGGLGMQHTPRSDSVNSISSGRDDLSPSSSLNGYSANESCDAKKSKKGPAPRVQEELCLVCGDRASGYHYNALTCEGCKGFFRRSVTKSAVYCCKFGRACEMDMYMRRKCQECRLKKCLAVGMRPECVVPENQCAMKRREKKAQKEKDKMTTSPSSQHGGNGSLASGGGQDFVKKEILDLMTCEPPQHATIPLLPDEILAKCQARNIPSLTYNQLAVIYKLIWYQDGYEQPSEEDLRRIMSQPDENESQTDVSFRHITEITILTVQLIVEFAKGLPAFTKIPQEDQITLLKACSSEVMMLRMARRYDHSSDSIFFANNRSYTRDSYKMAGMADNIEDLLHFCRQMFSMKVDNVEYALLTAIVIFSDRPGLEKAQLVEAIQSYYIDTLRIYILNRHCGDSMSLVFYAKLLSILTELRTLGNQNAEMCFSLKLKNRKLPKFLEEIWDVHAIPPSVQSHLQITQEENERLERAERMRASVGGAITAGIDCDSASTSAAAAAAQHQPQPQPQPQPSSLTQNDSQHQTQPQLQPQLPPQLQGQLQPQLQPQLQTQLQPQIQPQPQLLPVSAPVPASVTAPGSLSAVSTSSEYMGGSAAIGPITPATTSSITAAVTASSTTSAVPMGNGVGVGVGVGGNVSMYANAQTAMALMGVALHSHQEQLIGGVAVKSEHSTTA
T1 sequence (P20153 1-508 partner): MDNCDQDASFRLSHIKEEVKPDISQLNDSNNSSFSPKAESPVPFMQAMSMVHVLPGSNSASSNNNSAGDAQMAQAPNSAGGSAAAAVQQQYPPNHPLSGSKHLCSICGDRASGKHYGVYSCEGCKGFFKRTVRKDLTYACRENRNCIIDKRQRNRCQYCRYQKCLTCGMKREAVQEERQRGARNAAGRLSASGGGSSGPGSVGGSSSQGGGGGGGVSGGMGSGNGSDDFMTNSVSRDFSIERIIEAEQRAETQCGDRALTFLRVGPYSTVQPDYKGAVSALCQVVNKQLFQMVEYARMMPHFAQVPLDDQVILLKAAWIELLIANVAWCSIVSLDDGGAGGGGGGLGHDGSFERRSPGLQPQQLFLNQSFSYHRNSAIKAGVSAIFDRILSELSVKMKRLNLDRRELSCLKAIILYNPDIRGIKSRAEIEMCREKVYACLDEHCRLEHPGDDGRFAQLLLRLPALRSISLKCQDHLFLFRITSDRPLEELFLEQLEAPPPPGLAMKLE
The experiment in a line: Transient transfection reporter assay in CV-1 cells, ecdysone receptor with USP. It counts as cell-based. The note with it: 1 μM muristerone A, unmodified ecdysone receptor. Here is the method:
CV-1 cells were maintained in DMEM supplemented with 10%. Fetal Bovine Serum. Transient transfections were performed using DOTAP transfection reagent (Boehringer-Mannheim). Transfections using β-galactosidase as the reporter were assayed either by Galactolight luminescent assay (Tropix, Bedford, Mass.) or by standard liquid ONPG assay (Sigma, St. Louis, Mo.). The values were normalized by co-transfection of CMX-luciferase. Transfections using luciferase as the reporter were assayed by standard techniques using luciferin and ATP. These values were normalized by co-transfection of CMX-β-galactosidase. Hormone treated cells were treated with ethanol, 50 μM Juvenile Hormone III (Sigma), 1 μM muristerone A (Zambon, Bresso, IT), or 1 μM dexamethasone (Sigma) unless otherwise noted.
To maximize the sensitivity of the invention ecdysone inducible system, modifications of the ecdysone receptor were made. The N-terminal transactivation domain of the ecdysone receptor was replaced by the corresponding domain of the glucocorticoid receptor (GR), resulting in the modified ecdysone receptor GEcR (See FIG. 1D). CV-1 cells were transfected with the plasmid CMX-GEcR encoding the modified ecdysone receptor as discussed above. […]

Series [2] relates to N13 cells (293 cells with VpEcR, RXR and ecdysone inducible reporter). As to the kind of experiment: X-gal staining of stable cell line N13. In kind it is cell-based. The conditions noted are these: 24 hours of treatment with 1 μM muristerone; 3 hours of staining. The method, then:
Stable cell lines were generated containing the modified ecdysone receptor VpEcR, a heterodimeric partner (RXR), and an ecdysone inducible reporter (FIG. 2). 293 cells were transfected with the following linearized plasmids, pRC-ESHβ, EcREx5-ΔMTV-Luc, CMX-VpEcR, and CMX-hRXRa. The following day, the cells were split 1:10 and were allowed to recover one day prior to selection with 1 mg/ml G418 (GIBCO). After 14 days of selection, 14 individual clones were isolated and grown separately in the presence of 0.5 mg/ml G418.
One of these cell lines, N13, was grown in the presence or absence of 1 μM muristerone for 20 hours. Cell lysates were then assayed for β-galactosidase and luciferase activities as described in Example 1. X-gal staining was performed on the stable cell lines. Cells were fixed briefly with 10% formaldehyde in PBS and then stained with X-Gal (Molecular Probes, Eugene, Oreg.) for 2 to 6 hours. After 24 hours of treatment with 1 μM muristerone, 100% of the cells turned dark blue after 3 hours of staining. Thus, mammalian cells containing the modified ecdysone receptor VpEcR, a heterodimeric partner (RXR), and a reporter gene construct regulated by a modified ecdysone response element, function to efficiently express an exogenous gene in response to a ligand, e.g., ecdysone.

Series [3] shares this test system. The experiment in a line: Dose-response assay in N13 cells (β-galactosidase and luciferase reporters). The note with it: 36 hours. In kind it is cell-based. Here is the method:
(§1) N13 cells were grown with varying concentrations of muristerone for 36 hours and then assayed for β-galactosidase activity (open squares) by standard ONPG assay or for luciferase activity (closed circles). […] N13 cells were grown in separate wells in the presence of 1 μM muristerone, harvested at varying times, and assayed for luciferase activity as described in Example 3.
FIG. 5 compares the dose-dependent activation of N13 cells with muristerone (X) and ponasterone A (open circles).
A dose-response assay was conducted by growing N13 cells with varying concentrations of muristerone for 36 hours and then assaying for β-galactosidase activity (using the well-known ONPG assay), or the cells were assayed for luciferase activity. […] One-hundred fold induction was achieved by muristerone concentrations as low as 100 nM (FIG. 3A).
A dose-response assay was conducted as described in Example 3, by growing N13 cells with varying concentrations of muristerone or ponasterone A for 36 hours and then assaying for β-galactosidase activity (using the well-known ONPG assay), or the cells were assayed for luciferase activity.
(Reporter assays use an easily measured gene product as a stand-in for the process of interest.)

Series [4] shares this test system. The experiment in a line: Kinetics of induction in N13 cells (luciferase activity). It counts as cell-based. The note with it: 1 μM muristerone. Here is the method: as §1
Finally, the kinetics of muristerone mediated induction was measured. N13 cells were grown in separate wells in the presence of 1 μM muristerone, harvested at varying times, and assayed for luciferase activity. Inductions of 100-fold in 3 hrs., 1000 fold in 8 hrs., and maximal effects of 20,000 fold after 20 hours of treatment were observed (FIG. 3B).

For a further series, the system named is adult mice. As to the kind of experiment: Toxicity study in adult mice. In kind it is in vivo. The conditions noted are these: intraperitoneal, 20 mg in sesame oil, observed approximately two months. Here is the method: In order to use muristerone as a potential hormone in mice, its toxicity and bioavailability was examined. For toxicity studies, adult mice were injected intraperitonealy with 20 mg of muristerone A suspended in sesame oil. The mice were then observed for approximately two months. […] In addition to the inert qualities of muristerone (an ecdysone), overexpression of VpEcR and RXR appears not to be toxic.

Another series deals with pregnant mice. As to the kind of experiment: Teratogenic study in pregnant mice. In kind it is in vivo. The note with it: 20 mg in sesame oil, mother and pups observed three months.
The subject of series [5] is CV-1 cells transfected with CMX-GEcR, CMX-hRXRa, and EcREx5-DMTV-Luc. The experiment in a line: Bioavailability study: serum of injected mice tested on transfected CV-1 cells. It counts as in vivo. The method, then:
For muristerone bioavailability studies, adult mice were injected intraperitoneally with sesame oil with or without […] of muristerone, and were subsequently sacrificed for serum collection. After twelve hours, blood was drawn from the mice, and the serum was isolated by brief centrifugation of the whole blood. In order to conduct transfection assays to test for muristerone activity, serum from sesame oil injected mice was divided, and half was supplemented with muristerone to a final concentration of 10 μM. The three batches of mouse serum were diluted 1:10 in DMEM and placed onto CV-1 cells transfected with CMX-GEcR, CMX-hRXRa, and EcREx5-DMTV-Luc.

For series [6], the system named is ecdysone inducible promoter (CD3-VpEcR; CD3-RXR; ESHβ). As to the kind of experiment: Northern blot of receptor/reporter double transgenic mice. In kind it is in vivo. The note with it: 10 mg intraperitoneal, RNA 48 hours after treatment, thymus. Here is the method: To produce transgenic mice, the following DNA constructs were prepared and subsequently injected into fertilized eggs: CD3-VpEcR, CD3-RXR, ESHβ (Lee et al., J. Exp. Med. 175:1013-1025 (1992)). Two separate lines of transgenic mice were generated harboring either an ecdysone inducible reporter, ESHβ, or a T-cell specific expression construct of VpEcR and RXR, respectively. The former are referred to as reporter mice, the latter are referred to as receptor mice, and double transgenic mice are referred to as receptor/reporter mice. Constructs CD3-VpEcR and CD3-RXR were mixed and coinjected, while ESHB was injected alone. Primary genotyping was performed by Southern blot analysis and the transmission of transgenic mice was monitored by dot blot analysis. Receptor mice were analyzed for VpEcR and RXR expression by Northern blot analysis of RNA collected from these mice. For Northern blot analysis, 15 μg of total RNA obtained from the thymus, and various tissues as a control, was run on a denaturing gel and blotted onto a nitrocellulose membrane. The blot was probed with a radiolabeled β-gal-specific probe and exposed on film for 2 days. These receptor mice were healthy, fertile, and appeared normal by visual inspection. In addition, the transgene was transferred to the offspring as expected by Mendelian genetics. […]

With `CC(C)CC[C@@H](O)[C@](C)(O)[C@H]1CC[C@@]2(O)C3=CC(=O)[C@]4(O)C[C@@H](O)[C@@H](O)C[C@]4(C)[C@H]3[C@H](O)C[C@]12C` [muristerone A], in series [1], the “muristerone responsiveness (fold induction)” value is listed as 3 fold. In addition, the “cells turned dark blue (X-gal staining)” value in series [2] was 100%. In addition, the fold induction result in series [3] (concentrations as low as 100 nM) is “One-hundred”. Also, in series [3] (final concentration 10 μM), the “inducibility of β-galactosidase and luciferase reporters” value was ~3 orders of magnitude. In addition, the “induction of luciferase activity” value in series [4] (3 hrs) stood at 100 fold; in series [4] (8 hrs) it was 1000 fold. Further, in series [4] (after 20 hours of treatment), the “maximal induction of luciferase activity” value is 20,000 fold. For the same compound, the toxicity entry with adult mice was “neither toxic”. Also, the teratogenicity entry with pregnant mice is “neither toxic, teratogenic”. Besides, the “luciferase activity of serum from treated mice” value in series [5] (intraperitoneal 10 μmg in sesame oil, serum after twelve hours, diluted 1:10 in DMEM) is recorded as “comparable to that seen from untreated mouse serum supplemented with 1 μM muristerone”. In addition, in series [5] (mice, intraperitoneal), the “activity when injected into mice” value was “maintains its activity”. Also, the “inactivation or blunting of activity by serum proteins” value in series [5] (mouse serum) is reported as “nor inactivated by serum binding proteins; also recorded: little or no blunting of activity”. Moreover, the “induction from an ecdysone inducible promoter (Northern blot)” value in series [6] is recorded as “significant induction”.

These data come from US6723531B2, “Method for modulating expression of exogenous genes in mammalian systems, and products related thereto” (The Salk Institute for Biological Studies, priority 1996, dated 2004).
